Tests used:
[1] = recommended dose 200 mg/day, cited from earlier work
[2] = system: HCT116-EV cells; experiment: MTT cell viability, HCT116-EV cells (incl. Chou-Talalay analysis); type: cell-based, human
Method: (§1) HCT116 cells were seeded (1.25 × 10^5 cells/well) in 24-well plates and cultured for 24 h. For the transient expression of the recombinant human AKR1C3, the cells were transfected with a pCI_AKR1C3 or empty pCI plasmid as control (previously described in a study by Hofman et al.) according to the manufacturer’s instructions (jetPRIME® Transfection Reagent; Polyplus Transfection®, Illkirch, France). For each 24-well plate, a mixture of 0.75 µL of the jetPRIME® Transfection Reagent and 0.25 µg of plasmid was incubated for 10 min at room temperature. Then, polyplexes were added to the HCT116 cells with 0.5 mL of fresh DMEM supplemented with 10% FBS and incubated for 24 h (37 °C, 5% CO2). The expression of recombinant AKR1C3 was verified by western blotting as per methods described previously.
(§2) Twenty-four hours prior to the experiment, transfected HCT116 cells (8 × 10^3 cells/well) or A549 cells (5 × 10^3 cells/well) were seeded in 96-well plates. The cell culture medium was replaced with fresh medium containing increasing amounts of Dau (final concentrations: 0.01, 0.05, 0.1, 0.25, 0.5, 0.75, 1, and 10 µM) with or without BTK inhibitors (final concentrations: 1, 5, and 10 µM). After 72 h of incubation under standard conditions (37 °C, 5% CO2), cell viability was assessed by MTT (Sigma-Aldrich, Prague, Czech Republic) assay. For this, 50 µL of the MTT solution (3 mg/mL) was added to each well and incubated for 30 min. The supernatant was collected, and the cell monolayers were dissolved in 100 µL of DMSO. The absorbance was measured at 570 and 690 nm by a microplate reader Infinite M200 (Tecan, Salzburg, Austria), and the background values at 690 nm were subtracted from the absorbance obtained at 570 nm. The half-maximal inhibitory concentrations (IC50) were calculated using GraphPad Prism 8.1.2. The drug combination pharmacodynamics were determined by the Chou-Talalay method using the CompuSyn ver. 3.0.1 software (ComboSyn Inc., Paramus, NJ, USA).

[3] = system: HCT116-C3 cells; experiment: MTT cell viability, HCT116-C3 cells (incl. Chou-Talalay analysis); type: cell-based, human
Method: as §1
as §2, with “The synergistic effect of BTK inhibitors on Dau cytotoxicity was evaluated in transfected HCT116 and A549 cells by IC50 determination. Twenty-four” for “Twenty-four”

[4] = system: T1, AKR1C3 in HCT116-C3 cells; experiment: Dau metabolism to Dau-ol in HCT116 cells transiently overexpressing AKR1C3; type: cell-based, human; settings: 5 h
T1 construct: expressed in transfected cells; host or cells: HCT116
Method: as §1
(§3) After transfection of HCT116 cells or seeding of A549 cells (25 × 10^3 cells/well) in 24-well plates for 24 h, the medium was harvested and replaced with DMEM supplemented with 10% FBS containing 1 µM daunorubicin, with or without increasing concentrations (1, 5, and 10 μM) of BTK inhibitors. Cells were incubated (37 °C, 5% CO2) for 2.5 and 5 h (transfected HCT116) or only 5 h (A549). Then, the medium was collected and the cells were lysed in lysis buffer (25 mM Tris, 150 mM NaCl, and 1% Triton X-100, pH 7.8) for 15 min at room temperature. The collected medium was combined with cell lysate for further extraction and analysis of metabolites, as per methods described previously.

[5] = system: A549 cells; experiment: Intracellular metabolism of Dau in A549 cells; type: cell-based, human; settings: 5 h
Method: as §3

[6] = BTK-inhibitor 5 µM + Dau 0.25 µM
[7] = BTK-inhibitor 5 µM + Dau 0.50 µM
[8] = BTK-inhibitor 5 µM + Dau 0.75 µM
[9] = BTK-inhibitor 5 µM + Dau 1.00 µM
[10] = BTK-inhibitor 10 µM + Dau 0.25 µM
[11] = BTK-inhibitor 10 µM + Dau 0.50 µM
[12] = BTK-inhibitor 10 µM + Dau 0.75 µM
[13] = BTK-inhibitor 10 µM + Dau 1.00 µM
[14] = HCT116-C3, BTK-inhibitor 5 µM + Dau 0.25 µM
[15] = HCT116-C3, BTK-inhibitor 10 µM + Dau 0.25 µM

IC50 ([2]; Homo sapiens, 72 h MTT, read-out: IC50 of BTK inhibitor alone (cell viability)): 33 µM
IC50 ([3]; Homo sapiens, HCT116-C3, 72 h MTT, read-out: IC50 of BTK inhibitor alone (cell viability)): 32.2 µM
SMILES: CC#CC(=O)N1CCC[C@H]1c1nc(-c2ccc(C(=O)Nc3ccccn3)cc2)c2c(N)nccn12 [Acalabrutinib, acalabrutinib]
approximate Cmax [1]: ~825 ng/mL
Cmax ([1]; read-out: approximate Cmax): ~1800 nM
Combination index (CI) [2, 6]: 0.64 ± 0.07
Dose reduction index for Dau [2, 6]: 1.59 ± 0.16
Fraction affected (Fa %) [2, 6]: 57.98 ± 10.7%
Combination index (CI) [2, 7]: 0.80 ± 0.02
Dose reduction index for Dau [2, 7]: 1.26 ± 0.03
Fraction affected (Fa %) [2, 7]: 76.14 ± 4.55%
Combination index (CI) [2, 8]: 0.73 ± 0.05
Dose reduction index for Dau [2, 8]: 1.38 ± 0.09
Fraction affected (Fa %) [2, 8]: 88.86 ± 2.18%
Combination index (CI) [2, 9]: 0.93 ± 0.17
Dose reduction index for Dau [2, 9]: 1.10 ± 0.20
Fraction affected (Fa %) [2, 9]: 89.81 ± 0.07%
Combination index (CI) [2, 10]: 0.64 ± 0.01
Dose reduction index for Dau [2, 10]: 1.60 ± 0.00
Fraction affected (Fa %) [2, 10]: 58.22 ± 6.27%
Combination index (CI) [2, 11]: 0.68 ± 0.05
Dose reduction index for Dau [2, 11]: 1.48 ± 0.11
Fraction affected (Fa %) [2, 11]: 81.17 ± 2.72%
Combination index (CI) [2, 12]: 0.62 ± 0.12
Dose reduction index for Dau [2, 12]: 1.65 ± 0.31
Fraction affected (Fa %) [2, 12]: 91.66 ± 0.08%
Combination index (CI) [2, 13]: 0.88 ± 0.12
Dose reduction index for Dau [2, 13]: 1.15 ± 0.15
Fraction affected (Fa %) [2, 13]: 90.59 ± 0.95%
Dose reduction index for Dau [3, 14]: 1.38 ± 0.37
Fraction affected (Fa %) [3, 14]: 34.59 ± 5.75%
Fraction affected (Fa %) ([3]; HCT116-C3, BTK-inhibitor 5 µM + Dau 0.50 µM): 68.43 ± 1.41%
Fraction affected (Fa %) ([3]; HCT116-C3, BTK-inhibitor 5 µM + Dau 0.75 µM): 79.88 ± 0.40%
Fraction affected (Fa %) ([3]; HCT116-C3, BTK-inhibitor 5 µM + Dau 1.00 µM): 86.61 ± 1.29%
Dose reduction index for Dau [3, 15]: 1.77 ± 0.75
Fraction affected (Fa %) [3, 15]: 40.91 ± 11.4%
Fraction affected (Fa %) ([3]; HCT116-C3, BTK-inhibitor 10 µM + Dau 0.50 µM): 77.47 ± 0.69%
Fraction affected (Fa %) ([3]; HCT116-C3, BTK-inhibitor 10 µM + Dau 0.75 µM): 87.59 ± 1.02%
Fraction affected (Fa %) ([3]; HCT116-C3, BTK-inhibitor 10 µM + Dau 1.00 µM): 91.62 ± 0.29%
relative resistance (RR) ([3]; IC50 in HCT116-C3 divided by IC50 in HCT116-EV): 0.97
decrease in AKR1C3 activity (Dau to Dau-ol) ([4]; 1 µM BTK inhibitor + 1 µM Dau): 31.96% ± 13.51%
decrease in AKR1C3 activity (Dau to Dau-ol) ([4]; 5 µM BTK inhibitor + 1 µM Dau): 67.15% ± 10.35%
decrease in AKR1C3 activity (Dau to Dau-ol) ([4]; 10 µM BTK inhibitor + 1 µM Dau): 65.56% ± 1.53%
reduction of intracellular metabolism of Dau ([5]; 1 µM BTK inhibitor + 1 µM Dau): 12.13% ± 5.19%
reduction of intracellular metabolism of Dau ([5]; 5 µM BTK inhibitor + 1 µM Dau): 34.32% ± 7.09%
reduction of intracellular metabolism of Dau ([5]; 10 µM BTK inhibitor + 1 µM Dau): 44.24% ± 9.06%

Source: PMC7764606 (Cancers, 2020)
